Test results: patent US11377425B1, “Small molecule modulators of IL-17” (LEO Pharma A/S, priority 2018, dated 2022)

Molecular target: T1, human IL-17AA (Homo sapiens, UniProt Q16552)
T1 construct: host or cells: HEK (human embryonic kidney) cells
T1 sequence (Q16552 24-155): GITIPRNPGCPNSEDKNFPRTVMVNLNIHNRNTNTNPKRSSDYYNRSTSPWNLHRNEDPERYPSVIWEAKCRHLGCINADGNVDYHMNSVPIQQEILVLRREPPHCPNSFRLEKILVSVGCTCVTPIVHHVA
Experiment: IL-8 release assay in human epithelial keratinocytes adult (HEKa)
Type: cell-based
Conditions: HEKa cells, 3 ng/mL HEK-human IL-17AA + 10 ng/mL human TNFalpha; read-out: Rel EC50 IL-8 release assay
Summary of the method: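 IL-8 release, quantified by HTRF and normalized to controls, reports IL-17 signaling in HEKa cells treated with compound plus final 3 ng/mL IL-17AA (HEK-derived) and 10 ng/mL TNF-alpha for 68-72 h; TNF-alpha-only wells set 100% inhibition. Four-parameter logistic fits (r^2>0.9) give relative IC50 and Emax; PrestoBlue flags cytotoxicity.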

`Cn1cnnc1-c1ccc(NC(=O)[C@@H](NC(=O)c2ccnn2C)C(c2ccccc2)c2ccccc2)cc1` [Example 354, N-[(1S)-1-benzhydryl-2-[4-(4-methyl-1,2,4-triazol-3-yl)anilino]-2-oxo-ethyl]-2-methyl-pyrazole-3-carboxamide] and `Cc1n[nH]c(C)c1-c1ccc(NC(=O)C(NC(=O)c2ccnn2C)[C@@H]2CCOc3ccccc32)cc1` (mixture of isomers) [Example 26, 1:3 mixture of N-[(1S)-1-[(4R)-chroman-4-yl]-2-[4-(3,5-dimethyl-1H-pyrazo 4-yl)anilino]-2-oxo-ethyl]-2-methyl-pyrazole-3-carboxamide and N-[(1R)-1-[(4R)-chroman-4-yl]-2-[4-(3,5-dimethyl-1H-pyrazol-4-yl)anilino]-2-oxo-ethyl]-2-methyl-pyrazole-3-carboxamide] cannot be ordered by EC50: over 1 µM for the first, over 1 µM for the second.

`Cc1n[nH]c(C)c1-c1ccc(NC(=O)[C@@H](NC(=O)c2cnnn2C)C2CCCCC2)cc1` [Example 60, N-[(1S)-1-cyclohexyl-2-[4-(3,5-dimethyl-1H-pyrazol-4-yl)anilino]-2-oxo-ethyl]-3-methyl-triazole-4-carboxamide] and `Cc1nocc1C(=O)N[C@H](C(=O)Nc1ccc(-c2c(C)n[nH]c2C)cc1)C1CCCCC1` [Example 58, N-[(1S)-1-cyclohexyl-2-[4-(3,5-dimethyl-1H-pyrazol-4-yl)anilino]-2-oxo-ethyl]-3-methyl-isoxazole-4-carboxamide] fall in the same range of EC50: 0.1 to 1 µM for the first, 0.1 to 1 µM for the second.

`CC(C)n1nccc1C(=O)N[C@H](C(=O)Nc1ccc(-c2c(CO)ncn2C)cc1)C(C1CC1)C1CC1` [Example 406, N-[(1S)-1-(dicyclopropylmethyl)-2-[4-[5-(hydroxymethyl)-3-methyl-imidazol-4-yl]anilino]-2-oxo-ethyl]-2-isopropyl-pyrazole-3-carboxamide] and `Cc1ncoc1-c1ccc(NC(=O)[C@@H](NC(=O)c2ccnn2C(C)C)C(C2CC2)C2CC2)cc1` [Example 361, N-[(1S)-1-(dicyclopropylmethyl)-2-[4-(4-methyloxazol-5-yl)anilino]-2-oxo-ethyl]-2-isopropyl-pyrazole-3-carboxamide] fall in the same range of EC50: 0.1 to 1 µM for the first, 0.1 to 1 µM for the second.

First: Cc1n[nH]c(C)c1-c1ccc(NC(=O)[C@@H](NC(=O)OC2CC2)C2CCCCCC2)cc1O [Example 425, cyclopropyl N-[(1S)-1-cycloheptyl-2-[4-(3,5-dimethyl-1H-pyrazol-4-yl)-3-hydroxy-anilino]-2-oxo-ethyl]carbamate]
Second: Cc1n[nH]c(C)c1-c1ccc(NC(=O)[C@@H](NC(=O)OC2CC2)C2CCCCCC2)cc1 [Example 427, cyclopropyl N-[(1S)-1-cycloheptyl-2-[4-(3,5-dimethyl-1H-pyrazol-4-yl)anilino]-2-oxo-ethyl]carbamate]
The EC50 of the first is higher: 0.1 to 1 µM for the first, under 0.1 µM for the second.

First: Cc1n[nH]c(C)c1-c1ccc(NC(=O)[C@@H](NC(=O)c2ccnn2C(C)C)[C@H]2CCOc3ccccc32)cc1 [Example 47, N-[(1S)-1-[(4S)-chroman-4-yl]-2-[4-(3,5-dimethyl-1H-pyrazo1-4-yl)anilino]-2-oxo-ethyl]-2-isopropyl-pyrazole-3-carboxamide]
Second: Cc1n[nH]c(C)c1-c1ccc(NC(=O)[C@@H](NC(=O)c2ccnn2C)[C@H]2CCOc3ccccc32)cc1 [Example 34, N-[(1S)-1-[(4S)-chroman-4-yl]-2-[4-(3,5-dimethyl-1H-pyrazol-4-yl)anilino]-2-oxo-ethyl]-2-methyl-pyrazole-3-carboxamide]
The EC50 of the first is lower: under 0.1 µM for the first, 0.1 to 1 µM for the second. The first is the more potent here.

`Cc1n[nH]c(C)c1-c1ccc(NC(=O)C(NC(=O)c2ccnn2C)C2CC3CC3C2)cc1` [Example 233, N-[(1S)-1-[(1R,55)-3-bicyclo[3.1.0]2-[4-(3,5-dimethyl-1H-pyrazol-4-yl)anilino]-2-oxo-ethyl]-2-methyl-pyrazole-3-carboxamide] and `Cc1n[nH]c(C)c1-c1ccc(NC(=O)[C@@H](NC(=O)c2ccnn2C)C2CCC(C)(C)CC2)cc1` [Example 238, N-[(1S)-1-(4,4-dimethylcyclohexyl)-2-[4-(3,5-dimethyl-1H-pyrazol-4-yl)anilino]-2-oxo-ethyl]-2-methyl-pyrazole-3-carboxamide] fall in the same range of EC50: 0.1 to 1 µM for the first, 0.1 to 1 µM for the second.

Compared with `Cc1n[nH]c(C)c1-c1ccc(NC(=O)[C@@H](NC(=O)c2ccnn2C)C2CCC2(C)C)cc1` (single isomer, unassigned) [Example 232], `Cc1n[nH]c(C)c1-c1ccc(NC(=O)[C@@H](NC(=O)c2ccnn2C(C)CO)[C@@H]2CC(C)(C)CCC2(F)F)cc1` (single isomer, unassigned) [Example 210] is lower in EC50: 0.1 to 1 µM for the first, under 0.1 µM for the second.

`Cc1n[nH]c(C)c1-c1ccc(NC(=O)[C@@H](NC(=O)c2ccnn2C(C)CO)C2C3CC4CC(C3)CC2C4)cc1` (single isomer, unassigned) [Example 188] and `Cc1n[nH]c(C)c1-c1ccc(NC(=O)[C@@H](NC(=O)c2ccnn2C(C)CF)C(C2CC2)C2CC2)cc1` (stereo partly drawn) [Example 218, N-[(1S)-1-(dicyclopropylmethyl)-2-[4-(3,5-dimethyl-1H-pyrazol-4-yl)anilino]-2-oxo-ethyl]-2-(2-fluoro-methyl-ethyl)pyrazole-3-carboxamide] cannot be ordered by EC50: under 0.1 µM for the first, under 0.1 µM for the second.

`Cc1n[nH]c(C)c1-c1ccc(NC(=O)[C@H](CC2CCCCC2)NC(=O)c2ccnn2C(C)C)cc1` [Example 17, N-[(1S)-1-(cyclohexylmethyl)-2-[4-(3,5-dimethyl-1H-pyrazol-4-yl)anilino]-2-oxo-ethyl]-2-isopropyl-pyrazole-3-carboxamide] and `Cc1n[nH]c(C)c1-c1ccc(NC(=O)C(NC(=O)c2ccnn2C(C)C)C(C)C2CC2)cc1` (stereo not drawn) [Example 282] fall in the same range of EC50: 0.1 to 1 µM for the first, 0.1 to 1 µM for the second.

`CCC(CC)[C@H](NC(=O)c1ccnn1C(C)C)C(=O)Nc1ccc(-c2c(C)n[nH]c2C)cc1` [Example 121] and `Cc1n[nH]c(C)c1-c1ccc(NC(=O)[C@@H](NC(=O)c2ccnn2C(F)F)C2CCCCC2)cc1` [Example 28, N-[(1S)-1-cyclohexyl-2-[4-(3,5-dimethyl-1H-pyrazol-4-yl)anilino]-2-oxo-ethyl]-2-(difluoromethyl)pyrazole-3-carboxamide] fall in the same range of EC50: 0.1 to 1 µM for the first, 0.1 to 1 µM for the second.

Compared with `Cc1cnccc1-c1ccc(NC(=O)[C@@H](NC(=O)c2ccnn2C(C)C)C(C2CC2)C2CC2)cc1` [Example 405, N-[(1S)-1-(dicyclopropylmethyl)-2-[4-(3-methyl-4-pyridyl)anilino]-2-oxo-ethyl]-2-isopropyl-pyrazole-3-carboxamide], `Cc1n[nH]c(C)c1-c1ccc(NC(=O)[C@@H](NC(=O)O[C@H](C)CC[C@@H](C)O)C(C2CC2)C2CC2)cc1` [Example 480, [(1R,4R)-4-hydroxy-1-methyl-pentyl] N-[(1S)-1-(dicyclopropylmethyl)-2-[4-(3,5-dimethyl-1H-pyrazol-4-yl)anilino]-2-oxo-ethyl]carbamate] is higher in EC50: under 0.1 µM for the first, 0.1 to 1 µM for the second.

First: Cc1n[nH]c(C)c1-c1ccc(NC(=O)[C@@H](NC(=O)OCc2ccccn2)C2CCCCC2)cc1 [Example 431, 2-pyridylmethyl N-[(1S)-1-cyclohexyl-2-[4-(3,5-dimethyl-1H-pyrazol-4-yl)anilino]-2-oxo-ethyl]carbamate]
Second: Cc1n[nH]c(C)c1-c1ccc(NC(=O)[C@@H](NC(=O)c2ccnn2C)C2CCCCC2)cc1O [Example 412, N-[(1S)-1-cyclohexyl-2-[4-(3,5-dimethyl-1H-pyrazol-4-yl)-3-hydroxy-anilino]-2-oxo-ethyl]-2-methyl-pyrazole-3-carboxamide]
The EC50 of the first is higher: 0.1 to 1 µM for the first, under 0.1 µM for the second.
